Results as given in patent publication EP1063290A1, “NOVEL DICARBONYLREDUCTASE AND GENE ENCODING THE SAME” (TAISHO PHARMACEUTICAL CO., LTD, priority 1998, dated 1999).

Target: protein DCR1 (Mus musculus, UniProt Q91X52)
Assay: Dicarbonyl reductase activity assay: substrate specificity and rate constants (NAD(P)H oxidation at 340 nm)
Details: not given
Description: (§1) The enzyme activity assay method is not particularly restricted, and it may be based on the activity assay method for mouse carbonyl reductase (CR) (Eur. J. Biochem. 22, 381-387(1995)). The enzyme used here was an expressed recombinant enzyme. • (a) Substrate specificity: In order to determine the substrate specificity, there may be used a hydrocarbon system including various ketone, aldehyde and ester groups, or an aromatic compound.
• (1) This was assayed under the following conditions. The reaction mixture (total: 2.0 ml) comprised an 80 mM potassium phosphate solution (pH 7.0 or 6.0), 0.1 mM NADPH or NADH and a carbonyl substrate or enzyme (50 µl) (10.1 µg or 3.7 µg of glomerin B). The oxidation rate for NAD(P)H was measured at 340 nm.

Sequence of protein DCR1 (Q91X52 whole entry): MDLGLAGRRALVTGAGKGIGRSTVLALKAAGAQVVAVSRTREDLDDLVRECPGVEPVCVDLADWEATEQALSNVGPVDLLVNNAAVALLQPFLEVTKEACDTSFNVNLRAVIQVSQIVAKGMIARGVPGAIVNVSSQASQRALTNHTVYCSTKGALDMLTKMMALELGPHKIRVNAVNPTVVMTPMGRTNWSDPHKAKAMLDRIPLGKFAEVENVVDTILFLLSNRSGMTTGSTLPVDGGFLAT

| Compound | RA (%) relative activity |
| --- | --- |
| CCC(C)=O [2-Butanone] | 0% |
| C[C@]12CCC(=O)C[C@@H]1CC[C@@H]1[C@@H]2CC[C@]2(C)C(=O)CC[C@@H]12 [5α-Androstane-3,17-dione] | 0.0% |
| C[C@]12CCC(=O)C[C@H]1CC[C@@H]1[C@@H]2CC[C@]2(C)C(=O)CC[C@@H]12 [5β-Androstane-3,17-dione] | 0.0% |
| C[C@]12CC[C@@H](O)C[C@H]1CC[C@@H]1[C@@H]2[C@@H](O)C[C@]2(C)[C@@H](C(=O)CO)CC[C@@H]12 [Tetrahydrocorticosterone] | 0.0% |

Same assay, conditions: Example 5, result in words

| Compound | activity (as substrate) |
| --- | --- |
| OC1C=CCCC1 (stereo not drawn) [2-cyclohexen-1-ol] | no activity |
| CC(=O)c1ccc([N+](=O)[O-])cc1 [4-Nitroacetophenone] | no activity |
| CC1=CC(=O)c2ccccc2C1=O [Menadione (Vitamin K3), Menadione] | no activity |
| O[C@H]1CCc2ccccc21 [S-indan-1-ol] | no activity |

Same assay, conditions: substrate concentration 20 μM; against a reference of 100 for diacetyl

| Compound | RA (%) relative activity |
| --- | --- |
| O=C1C=Cc2ccccc2C1=O [1,2-Naphtoquinone] | 47% |
| CC(=O)[C@H]1CC[C@H]2[C@@H]3CC[C@@H]4CC(=O)CC[C@]4(C)[C@H]3CC[C@]12C [5β-Pregnane-3,20-dione] | 0.0% |
| CC(=O)[C@@]1(O)CC[C@H]2[C@@H]3CCC4=CC(=O)CC[C@]4(C)[C@H]3CC[C@@]21C [17α-hydroxyprogesterone] | 0.0% |
| C[C@]12C[C@H](O)[C@H]3[C@@H](CCC4=CC(=O)CC[C@@]43C)[C@@H]1CC[C@@H]2C(=O)C=O [Corticosterone-21-al] | 0.0% |
| C[C@]12CCC(=O)C=C1CC[C@@H]1[C@@H]2[C@@H](O)C[C@@]2(C)[C@H]1CC[C@]2(O)C(=O)C=O [Cortisol-21-al] | 0.0% |

Same assay, conditions: substrate concentration 50 μM; against a reference of 100 for diacetyl

| Compound | RA (%) relative activity |
| --- | --- |
| CCCCCCCCC=O [1-Nonanal] | 0.005% |

Same assay, conditions: substrate concentration 100 μM; against a reference of 100 for diacetyl

| Compound | RA (%) relative activity |
| --- | --- |
| O=C(C(=O)c1ccccc1)c1ccccc1 [Benzil] | 0% |
| CC1=CC(=O)c2ccccc2C1=O [Menadione (Vitamin K3), Menadione] | 0.1% |

Same assay, conditions: substrate concentration 400 μM; against a reference of 100 for diacetyl

| Compound | RA (%) relative activity |
| --- | --- |
| O=C1c2ccccc2C(=O)C1c1ccccc1 [1-Phenyl-1,3-indanedione] | 0.6% |

Same assay, conditions: substrate concentration 500 μM; against a reference of 100 for diacetyl

| Compound | RA (%) relative activity |
| --- | --- |
| CC(=O)C=Cc1ccccc1 [Benzalacetone] | 0% |
| CC12CCC(C(=O)C1=O)C2(C)C (stereo not drawn) [Camphorquinone] | 6% |
| COc1cccc2c1C(=O)c1c(O)c3c(c(O)c1C2=O)C[C@@](O)(C(C)=O)C[C@@H]3O[C@H]1C[C@H](N)[C@H](O)[C@H](C)O1 [Daunorubicin] | 1.1% |
| O=C1O[C@H]([C@@H](O)CO)C(=O)C1=O [Dehydroascorbic acid] | 0% |

Same assay, conditions: substrate concentration 1,000 μM; against a reference of 100 for diacetyl

| Compound | RA (%) relative activity |
| --- | --- |
| O=CC(O)CO (racemic) [DL-Glyceraldehyde] | 10.4% |
| O=C1CCCCC1=O [1,2-Cyclohexanedione] | 10.9% |
| O=C1CCC(=O)CC1 [1,4-Cyclohexanedione] | 0% |
| CC(=O)CC(C)=O [2,4-Pentanedione] | 0% |
| CC(=O)CCC(C)=O [2,5-Hexanedione] | 0% |
| O=C1C=CCCC1 [2-Cyclohexen-1-one] | 1.3% |
| O=C(O)C(=O)[C@@H](O)[C@H](O)[C@@H](O)CO [2-Ketogulonate] | 0% |
| O=C(c1ccccc1)c1ccncc1 [4-Benzoylpyridine] | 7% |
| CC(=O)c1ccc([N+](=O)[O-])cc1 [4-Nitroacetophenone] | 0% |
| O=Cc1ccc([N+](=O)[O-])cc1 [4-Nitrobenzaldehyde] | 3.3% |
| CC(=O)c1ccc(S(=O)(=O)NC(=O)NC2CCCCC2)cc1 [Acetohexamide] | 0% |
| CC(=O)CO [Acetol] | 0.8% |
| O=C[C@H](O)[C@@H](O)[C@H](O)[C@H](O)C(=O)O [D-Glucuronate] | 0% |
| C[C@@H](O)C=O [D-Lactoaldehyde] | 0.6% |
| CCOC(=O)CC(C)=O [Ethyl acetoacetate] | 0% |
| COC(=O)CC(C)=O [Methyl acetoacetate] | 0.2% |
| CC(=O)C=O [Methylglyoxal] | 2.3% |
| C=CCN1CC[C@]23c4c5ccc(O)c4O[C@H]2C(=O)CC[C@@]3(O)[C@H]1C5 [Naloxone] | 0% |
| CCCCC[C@H](O)/C=C/[C@H]1[C@H](O)CC(=O)[C@@H]1C/C=C\CCCC(=O)O [PGE2] | 0.0% |
| O=CC(=O)c1ccccc1 [Phenylglyoxal] | 3.9% |
| O=C(O)C(=O)Cc1ccccc1 [Phenylpyruvic acid] | 0.5% |
| CCC(=O)c1ccccc1 [Propiophenone] | 0% |
| O=Cc1cccnc1 [Pyridine-3-aldehyde] | 4% |
| CCOC(=O)C(C)=O [Pyruvic acid ethyl ester] | 35.2% |
| O=C(O)CCC(=O)C(=O)O [α-Ketoglutaric acid] | 0% |
| Indolecarboaldehyde | 0% |
| Phenyl-2-butanone | 0.2% |

Same assay, conditions: substrate concentration 1,500 μM; against a reference of 100 for diacetyl

| Compound | RA (%) relative activity |
| --- | --- |
| O=Cc1ccccc1[N+](=O)[O-] [2-Nitrobenzaldehyde] | 3.9% |

Same assay, conditions: substrate concentration 2,000 μM; against a reference of 100 for diacetyl

| Compound | RA (%) relative activity |
| --- | --- |
| O=CC(=O)C[C@H](O)[C@H](O)CO [3-Deoxyglucosone] | 0.4% |

Same assay, conditions: substrate concentration 3,000 μM; against a reference of 100 for diacetyl

| Compound | RA (%) relative activity |
| --- | --- |
| O=Cc1cccc([N+](=O)[O-])c1 [3-Nitrobenzaldehyde] | 3.3% |

Same assay, conditions: substrate concentration 5,000 μM; against a reference of 100 for diacetyl

| Compound | RA (%) relative activity |
| --- | --- |
| O=CC(O)CO (racemic) [DL-Glyceraldehyde] | 40% |
| CCC=O [1-Propanal] | 0.5% |
| CC=O [Acetaldehyde] | 1.8% |
| CC(=O)C(C)O (stereo not drawn) [Acetoin] | 7.4% |
| O=CCO [Glycolaldehyde] | 0.9% |
| O=CC=O [Glyoxal] | 0% |
| CC(=O)C=O [Methylglyoxal] | 7.9% |
| O=Cc1ccncc1 [Pyridine-4-aldehyde] | 13.7% |
| CC(=O)C(=O)O [Pyruvic acid] | 0% |

Same assay, conditions: substrate concentration 200,000 μM; against a reference of 100 for diacetyl

| Compound | RA (%) relative activity |
| --- | --- |
| O=C[C@H](O)[C@@H](O)[C@H](O)[C@H](O)CO [D-Glucose] | 0% |

Target: protein hDCR1 (Homo sapiens, UniProt Q7Z4W1)
Assay: Dicarbonyl reductase activity assay: substrate specificity (NAD(P)H oxidation at 340 nm)
Details: substrate concentration 20 μM; against a reference of 100 for diacetyl
Description: as §1
The reaction mixture (total: 2.0 ml) comprised an 80 mM potassium phosphate solution (pH 7.0 or 6.0), 0.1 mM NADPH or NADH and a carbonyl substrate or enzyme (50 µl) (10.1 µg or 3.7 µg of hDCR1).
The oxidation rate for NAD(P)H was measured at 340 nm.
One unit of enzyme activity was defined as that which catalyzed oxidation of 1 µmol of NAD(P)H in one minute at 25°C.

Sequence of protein hDCR1 (Q7Z4W1 whole entry): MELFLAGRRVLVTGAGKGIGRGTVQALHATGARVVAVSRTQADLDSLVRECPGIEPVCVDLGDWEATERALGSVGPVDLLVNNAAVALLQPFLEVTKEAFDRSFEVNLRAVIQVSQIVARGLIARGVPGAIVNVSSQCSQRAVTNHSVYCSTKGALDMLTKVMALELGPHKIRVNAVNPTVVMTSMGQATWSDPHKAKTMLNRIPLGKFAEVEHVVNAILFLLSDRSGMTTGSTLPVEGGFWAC

| Compound | RA (%) relative activity |
| --- | --- |
| C[C@]12CCC(=O)C[C@H]1CC[C@@H]1[C@@H]2C(=O)C[C@@]2(C)[C@H]1CC[C@]2(O)C(=O)CO [5β-dihydrocortisone] | 0% |

Same assay, conditions: substrate concentration 50 μM; against a reference of 100 for diacetyl

| Compound | RA (%) relative activity |
| --- | --- |
| C[C@]12CCC(=O)C[C@@H]1CC[C@@H]1[C@@H]2CC[C@]2(C)C(=O)CC[C@@H]12 [5α-Androstane-3,17-dione] | 0% |
| C[C@]12CCC(=O)C[C@@H]1CC[C@@H]1[C@@H]2CC[C@]2(C)[C@@H](O)CC[C@@H]12 [5α-DHT] | 0% |
| CC(=O)[C@@]1(O)CC[C@H]2[C@@H]3CCC4=CC(=O)CC[C@]4(C)[C@H]3CC[C@@]21C [17α-hydroxyprogesterone] | 0% |
| C[C@]12C[C@H](O)[C@H]3[C@@H](CCC4=CC(=O)CC[C@@]43C)[C@@H]1CC[C@@H]2C(=O)CO [Corticosterone] | 0% |

Same assay, conditions: substrate concentration 100 μM; against a reference of 100 for diacetyl

| Compound | RA (%) relative activity |
| --- | --- |
| CC1=CC(=O)c2ccccc2C1=O [Menadione (Vitamin K3), Menadione] | 0% |

Same assay, conditions: substrate concentration 500 μM; against a reference of 100 for diacetyl

| Compound | RA (%) relative activity |
| --- | --- |
| CC12CCC(C(=O)C1=O)C2(C)C (stereo not drawn) [Camphorquinone] | 23% |
| COc1cccc2c1C(=O)c1c(O)c3c(c(O)c1C2=O)C[C@@](O)(C(C)=O)C[C@@H]3O[C@H]1C[C@H](N)[C@H](O)[C@H](C)O1 [Daunorubicin] | 0% |

Same assay, conditions: substrate concentration 1,000 μM; against a reference of 100 for diacetyl

| Compound | RA (%) relative activity |
| --- | --- |
| O=C1CCCCC1=O [1,2-Cyclohexanedione] | 27% |
| CC(=O)CC(C)=O [2,4-Pentanedione] | 0% |
| O=Cc1ccccc1[N+](=O)[O-] [2-Nitrobenzaldehyde] | 99% |
| O=C(c1ccccc1)c1ccncc1 [4-Benzoylpyridine] | 39% |
| CC(=O)c1ccc([N+](=O)[O-])cc1 [4-Nitroacetophenone] | 0% |
| O=Cc1ccc([N+](=O)[O-])cc1 [4-Nitrobenzaldehyde] | 69% |
| O=CC(=O)c1ccccc1 [Phenylglyoxal] | 35% |
| O=Cc1cccnc1 [Pyridine-3-aldehyde] | 27% |
| O=Cc1ccncc1 [Pyridine-4-aldehyde] | 27% |
| CCOC(=O)C(C)=O [Pyruvic acid ethyl ester] | 33% |

Same assay, conditions: substrate concentration 2,000 μM; against a reference of 100 for diacetyl

| Compound | RA (%) relative activity |
| --- | --- |
| O=CC(=O)C[C@H](O)[C@H](O)CO [3-Deoxyglucosone] | 5% |
| COC(=O)CCC(=O)C(=O)OC [Dimethyl-2-oxoglutarate] | 63% |

Same assay, conditions: substrate concentration 5,000 μM; against a reference of 100 for diacetyl

| Compound | RA (%) relative activity |
| --- | --- |
| O=CC(O)CO (racemic) [DL-Glyceraldehyde] | 25% |
| CC(=O)C(C)O (stereo not drawn) [Acetoin] | 13% |
| CC(=O)C=O [Methylglyoxal] | 20% |
